Activity calls are given as the source filed them.
How the values were obtained:
[1] = molecular target: T1, Corticotropin-releasing factor receptor 2/Corticotropin-releasing factor-binding protein (Homo sapiens, UniProt P24387+Q13324); experiment: Dose Response confirmation of uHTS hits for small molecule antagonists of the CRF-binding protein and CRF-R2 receptor complex.; type: functional; settings: read-out: IC50_Mean
T1 sequence (Q13324 whole entry): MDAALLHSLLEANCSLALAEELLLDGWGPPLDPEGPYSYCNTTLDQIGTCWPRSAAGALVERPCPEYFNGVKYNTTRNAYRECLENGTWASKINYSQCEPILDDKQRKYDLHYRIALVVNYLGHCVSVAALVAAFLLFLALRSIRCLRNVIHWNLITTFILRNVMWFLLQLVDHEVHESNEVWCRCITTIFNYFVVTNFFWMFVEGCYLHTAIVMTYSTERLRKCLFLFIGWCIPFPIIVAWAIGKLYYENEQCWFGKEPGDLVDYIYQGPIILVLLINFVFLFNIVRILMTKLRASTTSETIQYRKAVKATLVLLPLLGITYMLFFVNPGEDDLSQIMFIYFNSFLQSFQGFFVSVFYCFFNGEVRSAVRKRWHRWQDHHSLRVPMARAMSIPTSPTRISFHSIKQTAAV
T1 sequence (P24387 whole entry): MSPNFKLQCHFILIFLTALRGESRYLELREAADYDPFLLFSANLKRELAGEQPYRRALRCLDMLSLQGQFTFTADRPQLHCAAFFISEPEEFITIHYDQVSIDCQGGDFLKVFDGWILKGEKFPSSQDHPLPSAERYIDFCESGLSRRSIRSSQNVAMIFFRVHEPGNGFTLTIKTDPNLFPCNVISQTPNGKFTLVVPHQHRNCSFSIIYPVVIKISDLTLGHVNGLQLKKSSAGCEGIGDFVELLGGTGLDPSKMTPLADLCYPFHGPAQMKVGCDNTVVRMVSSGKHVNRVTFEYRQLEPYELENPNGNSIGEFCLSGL

[2] = molecular target: T1, Corticotropin-releasing factor receptor 2/Corticotropin-releasing factor-binding protein; experiment: activators of CRF receptor 2 with binding protein – uHTS hits, confirmation (AID 602473); type: functional; settings: read-out: EC50_Mean
Protein skinhead-1 = molecular target: T2, Protein skinhead-1 (Caenorhabditis elegans, UniProt P34707); type: functional
T2 sequence (P34707 whole entry): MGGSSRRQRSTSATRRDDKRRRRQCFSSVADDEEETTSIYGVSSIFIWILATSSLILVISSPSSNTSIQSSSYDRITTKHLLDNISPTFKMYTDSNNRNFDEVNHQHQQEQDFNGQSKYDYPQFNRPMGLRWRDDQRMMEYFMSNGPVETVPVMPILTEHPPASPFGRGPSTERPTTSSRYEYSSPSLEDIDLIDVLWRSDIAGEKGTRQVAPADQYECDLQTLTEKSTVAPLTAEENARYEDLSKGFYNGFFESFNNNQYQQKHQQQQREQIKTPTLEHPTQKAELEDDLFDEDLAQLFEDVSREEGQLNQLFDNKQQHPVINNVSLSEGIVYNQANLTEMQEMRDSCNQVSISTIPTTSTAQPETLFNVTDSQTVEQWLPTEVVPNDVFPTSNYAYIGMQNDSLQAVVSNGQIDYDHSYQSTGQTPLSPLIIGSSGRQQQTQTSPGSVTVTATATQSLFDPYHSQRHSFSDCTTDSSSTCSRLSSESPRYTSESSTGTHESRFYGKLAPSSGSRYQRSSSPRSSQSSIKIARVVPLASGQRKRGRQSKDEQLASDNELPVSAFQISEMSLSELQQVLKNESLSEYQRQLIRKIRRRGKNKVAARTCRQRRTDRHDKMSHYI

[3] = molecular target: T3, Heat shock factor protein 1 (Mus musculus, UniProt P38532); experiment: enhancement of HSF1-driven luciferase signal – cell-based, NIH3T3, luminescence, dose retest, confirmation (AID 435004); type: functional;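 note: stress induced by proteasome inhibitor MG132 added 30 min after compound; luciferase reporter driven by HSF1 response element in NIH3T3 cells; actives raise luminescence as potentiators of the MG132 stress response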
T3 sequence (P38532 whole entry): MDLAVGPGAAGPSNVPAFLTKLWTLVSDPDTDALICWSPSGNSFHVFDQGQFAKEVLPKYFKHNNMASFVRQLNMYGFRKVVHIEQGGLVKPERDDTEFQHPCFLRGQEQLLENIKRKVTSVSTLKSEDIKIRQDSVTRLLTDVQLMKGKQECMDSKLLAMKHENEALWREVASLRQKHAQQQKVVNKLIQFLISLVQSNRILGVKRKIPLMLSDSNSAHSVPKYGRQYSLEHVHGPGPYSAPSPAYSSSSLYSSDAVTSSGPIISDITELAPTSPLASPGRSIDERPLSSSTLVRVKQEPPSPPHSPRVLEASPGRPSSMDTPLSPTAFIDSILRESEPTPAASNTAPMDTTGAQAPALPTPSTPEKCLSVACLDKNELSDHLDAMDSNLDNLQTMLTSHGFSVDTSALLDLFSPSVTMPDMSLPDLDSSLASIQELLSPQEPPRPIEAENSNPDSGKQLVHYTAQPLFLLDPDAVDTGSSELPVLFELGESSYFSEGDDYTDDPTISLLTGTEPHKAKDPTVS

Cytochrome P450 1A2 = molecular target: T4, Cytochrome P450 1A2 (Homo sapiens, UniProt P05177);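 note: PubChem cytochrome P450 panel assay, CYP1A2 panel member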
T4 sequence (P05177 whole entry): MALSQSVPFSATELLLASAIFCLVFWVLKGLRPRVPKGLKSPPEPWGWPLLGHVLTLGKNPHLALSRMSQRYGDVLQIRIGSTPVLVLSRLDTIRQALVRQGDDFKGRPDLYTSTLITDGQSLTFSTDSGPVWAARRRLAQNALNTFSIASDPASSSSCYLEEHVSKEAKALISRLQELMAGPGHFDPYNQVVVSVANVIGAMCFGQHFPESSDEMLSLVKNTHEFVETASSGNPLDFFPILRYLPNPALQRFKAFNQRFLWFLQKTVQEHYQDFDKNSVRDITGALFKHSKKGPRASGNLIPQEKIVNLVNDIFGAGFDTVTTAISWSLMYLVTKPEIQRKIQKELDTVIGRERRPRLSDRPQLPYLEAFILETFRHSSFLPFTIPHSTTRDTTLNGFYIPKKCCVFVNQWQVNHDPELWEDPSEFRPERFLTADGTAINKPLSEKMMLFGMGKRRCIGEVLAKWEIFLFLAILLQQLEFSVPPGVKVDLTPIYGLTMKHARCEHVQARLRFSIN

Cytochrome P450 3A4 = Cytochrome P450 3A4 (Homo sapiens, UniProt P08684);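 note: CYP3A4 tested as one member of a cytochrome P450 panel screen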
Cytochrome P450 2C9 = Cytochrome P450 2C9 (Homo sapiens, UniProt P11712)
[4] = Luminescence Cell-Based Dose Response HTS to Identify Activators of Luciferase Translation or Activity in H4 […] Cells. [Related pubchem assays: 1829 (Project Summary), 1814 (Primary HTS)]; type: functional
H4 = experiment: Luminescence Cell-Based Dose Response HTS to Identify Activators of 5'UTR Stem-Loop Driven Prion Protein mRNA Translation in H4 Neuroglioblastoma Cells. [Related pubchem assays: 1829 (Project Summary), 1814 (Primary HTS)]; type: functional; settings: Homo sapiens
[5] = Trypanosoma cruzi growth suppression in host cells – NIH3T3 host cells, beta-gal luminescence, confirmation (AID 2044); type: functional, cell-based;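 note: intracellular parasites grown in NIH/3T3 mouse fibroblasts as host cells; luminescent beta-galactosidase reporter signal from transgenic T. cruzi replicating inside host cells; inhibitors lower the luminescence signal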
[6] = NIH3T3 cell viability loss – ATP luminescence, mouse fibroblasts, counter-screen, dose response (AID 2010); type: functional, cell-based;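 note: cells exposed to compound for about 90 hours before reading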

Chain of Cytochrome P450 3A4 (P08684 whole entry): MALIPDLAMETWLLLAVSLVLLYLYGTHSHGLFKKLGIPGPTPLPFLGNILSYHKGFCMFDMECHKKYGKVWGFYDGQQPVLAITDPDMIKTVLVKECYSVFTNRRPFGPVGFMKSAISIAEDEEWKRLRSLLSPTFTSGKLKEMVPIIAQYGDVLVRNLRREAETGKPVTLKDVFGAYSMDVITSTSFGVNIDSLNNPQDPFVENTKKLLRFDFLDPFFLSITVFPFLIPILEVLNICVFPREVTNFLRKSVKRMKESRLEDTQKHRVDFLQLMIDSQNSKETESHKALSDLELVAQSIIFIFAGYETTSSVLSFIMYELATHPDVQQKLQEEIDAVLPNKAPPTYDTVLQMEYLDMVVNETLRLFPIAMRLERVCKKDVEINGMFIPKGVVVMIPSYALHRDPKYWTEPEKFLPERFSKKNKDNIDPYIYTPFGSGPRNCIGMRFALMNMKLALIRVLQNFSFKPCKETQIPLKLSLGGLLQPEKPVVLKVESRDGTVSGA
Chain of Cytochrome P450 2C9 (P11712 whole entry): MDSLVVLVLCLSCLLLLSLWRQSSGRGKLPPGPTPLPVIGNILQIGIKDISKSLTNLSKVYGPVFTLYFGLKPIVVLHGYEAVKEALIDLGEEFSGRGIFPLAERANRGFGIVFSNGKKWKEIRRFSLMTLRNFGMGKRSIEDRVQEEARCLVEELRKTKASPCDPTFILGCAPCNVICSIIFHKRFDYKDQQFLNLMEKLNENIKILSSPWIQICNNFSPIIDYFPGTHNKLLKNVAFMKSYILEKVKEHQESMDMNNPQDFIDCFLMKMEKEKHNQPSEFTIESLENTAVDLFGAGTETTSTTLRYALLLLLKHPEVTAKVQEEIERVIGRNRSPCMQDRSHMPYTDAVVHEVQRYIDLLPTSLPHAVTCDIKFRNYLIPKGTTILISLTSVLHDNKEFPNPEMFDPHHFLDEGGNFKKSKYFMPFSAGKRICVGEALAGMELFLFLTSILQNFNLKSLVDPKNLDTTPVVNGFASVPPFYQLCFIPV

CCc1nc(NCCC(C)C)c(C#N)c2c1CCCC2
IC50 [1]: > 47.1 µM (inactive)
EC50 [2]: > 53 µM (inactive)
IC50 (Protein skinhead-1): > 100 µM (inactive)

Clc1ccc(-c2nnc(-c3ccccc3)o2)cn1
IC50 (Protein skinhead-1): 39.8 µM (active)

COc1ccc(/C=C/C(=O)N(C(C)C)C(C)C)cc1Br
EC50 [3]: 200 µM (active)

O=C1/C(=C\c2cccs2)SC(=S)N1C1CCS(=O)(=O)C1 (centres undefined)
IC50 (Protein skinhead-1): > 100 µM (inactive)

COc1ccc(-c2nc3cnc(N4CCNCC4)nc3n(C)c2=O)cc1
AC50 (Cytochrome P450 1A2): 12.6 µM (inconclusive)
AC50 (Cytochrome P450 3A4): 31.6 µM (inconclusive)

COc1cccc(-c2ccc3ncnc(N4CCNCC4)c3c2)c1
AC50 (Cytochrome P450 3A4): 10 µM (inconclusive)

CN(C)c1ccc(C(CNC(=O)c2ccccc2)c2c[nH]c3ccccc23)cc1 (centres undefined)
EC50 [3]: > 260 µM (inactive)

CC(NC(=O)/C=C/c1ccco1)c1nc2ccccc2n1Cc1cccc(Cl)c1 (centres undefined)
EC50 [3]: > 260 µM (inactive)

c1ccc(N2CCN(c3cnc4ccccc4n3)CC2)cc1
IC50 (Protein skinhead-1): 76.2 µM (inactive)

CC(=O)NCCNc1nc(-c2ccccc2Cl)nc2ccccc12
AC50 (Cytochrome P450 3A4): 5.01 µM (inconclusive)

CC(=O)N1CSCC1C(=O)NNS(=O)(=O)c1cccc(C(F)(F)F)c1 (centres undefined)
EC50 [3]: > 260 µM (inactive)

N[C@@H](CC1=CS(=O)(=O)c2ccc(Cl)cc21)C(=O)O
AC50 (Cytochrome P450 1A2): 0.398 µM (inconclusive)
AC50 (Cytochrome P450 3A4): 5.01 µM (inconclusive)
AC50 (Cytochrome P450 2C9): 6.31 µM (inconclusive)

Cc1ccccc1OCc1nnc2c3cnn(C)c3ncn12
EC50 [4]: 16.8 µM (active)
EC50 (H4): 38.8 µM (active)

CC(=O)N1CCC[C@@]2(CCN(Cc3nccs3)C2)C1
AC50 (Cytochrome P450 3A4): 31.6 µM (inconclusive)

COC(=O)c1[nH]c2ccccc2c1NC(=O)C(C)N1CCOCC1 (centres undefined)
IC50 (Protein skinhead-1): > 100 µM (inactive)

COc1ccc(Nc2oc(-c3ccc(F)cc3)nc2C#N)cc1
EC50 [4]: 15.1 µM (active)
EC50 (H4): > 120 µM (not active)

CSc1ccc(S(=O)(=O)N2CCC(C(=O)Nc3ccccc3C(F)(F)F)CC2)cc1
IC50 (Protein skinhead-1): > 100 µM (inactive)

CCn1cc(C(=O)OCC(=O)NCc2ccc3c(c2)OCO3)c(=O)c2ccc(C)nc21
IC50 (Protein skinhead-1): > 100 µM (inactive)

Cc1cc(C)n(-c2nc3ccccc3n3cnnc23)n1
IC50 (Protein skinhead-1): > 100 µM (inactive)

Fc1ccc(-c2cnn3c(-c4ccncc4)ccnc23)cc1
IC50 (Protein skinhead-1): > 100 µM (inactive)

COc1cc(-c2cn(S(=O)(=O)c3cccc4nsnc34)nc2N)cc(OC)c1OC
EC50 [3]: > 260 µM (inactive)

Cc1csc(NC(=O)CNS(=O)(=O)c2cccs2)n1
AC50 (Cytochrome P450 3A4): 17.8 µM (inconclusive)

COc1cccc(CNCc2ccc(SC)cc2)c1OC
AC50 (Cytochrome P450 3A4): 11.2 µM (inconclusive)

O=C(Nc1ccccc1C(=O)N1CCCC1)c1ncoc1-c1cccc(Cl)c1
EC50 [3]: > 260 µM (inactive)

O=C(CN1CCN(S(=O)(=O)N2CCCCC2)CC1)Nc1cc(Cl)cc(Cl)c1
IC50 (Protein skinhead-1): > 100 µM (inactive)

N#CC(c1ccccn1)(c1ncc(C(F)(F)F)cc1Cl)N1CCOCC1 (centres undefined)
AC50 (Cytochrome P450 3A4): 35.5 µM (inconclusive)

N#C/C(=C(\O)C(F)(F)F)c1nnc2n1CCCCC2
EC50 [3]: > 260 µM (inactive)

COc1cc(/C=N/NC(=O)c2ccncc2)ccc1OC(=O)c1ccc([N+](=O)[O-])cc1
AC50 (Cytochrome P450 3A4): 0.891 µM (inconclusive)
AC50 (Cytochrome P450 2C9): 3.55 µM (inconclusive)

CO/C(O)=C1/C(C)=NC2=C(C(=O)CC(C)(C)C2)C1c1cn(Cc2ccc(Br)cc2)nc1-c1ccccc1 (centres undefined)
EC50 [3]: > 260 µM (inactive)

COc1ccc(/C(C)=N/NC(=S)NCc2ccco2)cc1
EC50 [3]: > 260 µM (inactive)

CCOC(=O)C1=C(Nc2ccccc2)CC(C)(O)C(C(=O)OCC)C1c1ccc(Cl)cc1 (centres undefined)
IC50 (Protein skinhead-1): > 100 µM (inactive)

C[C@@H](N)Cn1ccc2cc(F)c(Cl)cc21
AC50 (Cytochrome P450 3A4): 39.8 µM (inconclusive)

N#C/C(=C\c1ccc(Sc2ccccc2)o1)c1nc2ccccc2[nH]1
EC50 [4]: 0.561 µM (active)
EC50 (H4): 23 µM (active)
EC50 [5]: 1.42 µM (active)
EC50 [6]: > 60 µM (inconclusive)

— ChEMBL document CHEMBL1201862, “PubChem BioAssay data set” (2004)
